Assay: molar heat capacity at constant pressure
Conditions: 101.33 kPa, Crystal

[Gd+3].[Gd+3].[O-2].[O-2].[O-2] [gadolinium sesquioxide]
Conditions	molar heat capacity at constant pressure [J/K/mol]
5.34 K	4.24
5.84 K	5.88
6.65 K	6.66
8.48 K	4.7
10.16 K	3.95
11.17 K	3.51
11.58 K	3.33
13.24 K	3.19
13.72 K	3.18
14.69 K	3.17
15.56 K	3.2
15.84 K	3.18
16.98 K	3.47
17.06 K	3.5
18.14 K	3.76
18.46 K	3.8
19.29 K	4.28
19.86 K	4.28
20 K	4.32
20.63 K	4.51
21.24 K	4.73
21.97 K	5.08
22.65 K	5.27
23.31 K	5.65
23.91 K	5.87
24.66 K	6.36
25 K	6.55
25.22 K	6.67
26.02 K	7.26
26.08 K	7.21
26.79 K	7.55
27.33 K	7.65
27.99 K	7.92
28.5 K	8.29
29.64 K	8.93
30 K	9.163
31.19 K	9.927
32.73 K	10.96
34.3 K	11.95
35 K	12.42
35.9 K	13.02
37.53 K	13.85
39.19 K	14.85
40 K	15.35
40.87 K	15.9
42.55 K	17.06
44.25 K	18.21
45 K	18.7
45.96 K	19.33
47.7 K	20.45
49.45 K	21.55
50 K	21.9
51.21 K	22.67
52.99 K	23.75
54.78 K	24.86
56.58 K	26
58.39 K	27.1
60 K	28.03
60.22 K	28.16
62.05 K	29.26
63.89 K	30.33
65.75 K	31.37
67.61 K	32.46
69.47 K	33.54
70 K	33.85
71.35 K	34.62
73.23 K	35.69
75.12 K	36.68
77.01 K	37.74
78.91 K	38.79
80 K	39.37
80.81 K	39.79
82.72 K	40.83
83.39 K	41.24
84.63 K	41.9
85.99 K	42.64
86.55 K	42.9
88.47 K	43.84
88.8 K	44.12
90 K	44.63
90.39 K	44.82
91.62 K	45.57
92.32 K	45.88
93.14 K	46.35
93.67 K	46.53
94.25 K	46.87
94.44 K	46.97
94.91 K	47.23
96.18 K	47.87
96.86 K	48.18
97.27 K	48.4
98.12 K	48.9
98.79 K	49.39
100 K	50.12
100.06 K	50.15
100.11 K	50.21
100.72 K	50.42
102.65 K	51.08
102.97 K	51.17
104.58 K	51.98
105.83 K	52.6
106.52 K	53
108.46 K	54.02
108.7 K	54.13
110.4 K	54.87
111.58 K	55.27
112.35 K	55.75
114.3 K	56.56
114.46 K	56.66
116.25 K	57.42
117.35 K	57.9
118.2 K	58.29
120 K	58.58
120.15 K	58.66
120.24 K	58.72
122.11 K	59.91
123.15 K	60.56
124.07 K	60.93
126.02 K	61.79
126.04 K	61.82
127.98 K	62.72
128.94 K	63.08
129.95 K	63.54
131.83 K	64.33
131.91 K	64.31
133.87 K	65.17
134.73 K	65.5
135.84 K	65.98
137.64 K	66.69
137.81 K	66.76
139.77 K	67.58
140 K	67.66
140.55 K	67.86
141.74 K	68.33
143.47 K	69
143.71 K	69.08
145.68 K	69.88
146.39 K	70.15
147.65 K	70.61
149.31 K	71.26
149.62 K	71.38
151.6 K	72.1
152.23 K	72.33
153.57 K	72.82
155.16 K	73.39
155.55 K	73.55
157.52 K	74.24
158.09 K	74.43
159.5 K	74.94
160 K	75.12
161.02 K	75.46
161.47 K	75.6
163.45 K	76.3
163.95 K	76.42
165.43 K	76.95
166.88 K	77.42
167.41 K	77.62
169.38 K	78.25
169.82 K	78.4
171.36 K	78.94
172.76 K	79.32
173.34 K	79.5
175.32 K	80.12
175.7 K	80.25
177.31 K	80.7
178.65 K	81.16
179.29 K	81.37
180 K	81.58
181.27 K	81.94
181.59 K	82.04
183.25 K	82.48
184.54 K	82.86
185.23 K	83.08
187.21 K	83.64
187.49 K	83.73
189.2 K	84.23
190.44 K	84.56
191.18 K	84.81
193.16 K	85.14
193.39 K	85.31
195.15 K	85.81
196.34 K	86.05
197.13 K	86.3
199.11 K	86.89
199.29 K	86.89
200 K	87.05
201.1 K	87.39
202.24 K	87.63
203.08 K	87.88
205.07 K	88.38
205.19 K	88.38
207.05 K	88.8
208.15 K	89.05
209.04 K	89.3
211.03 K	89.8
211.11 K	89.8
213.01 K	90.21
214.07 K	90.46
215 K	90.71
216.99 K	91.13
217.03 K	91.13
218.97 K	91.54
219.98 K	91.79
220 K	91.79
220.96 K	92.04
222.94 K	92.46
222.95 K	92.46
224.93 K	92.87
225.89 K	93.04
226.92 K	93.29
228.85 K	93.7
228.91 K	93.62
230.9 K	94.12
231.81 K	94.2
232.89 K	94.45
234.77 K	94.87
234.87 K	94.87
236.86 K	95.28
237.72 K	95.45
238.17 K	95.62
238.8 K	95.53
240 K	95.87
240.35 K	95.95
240.69 K	95.95
242.83 K	96.36
243.65 K	96.53
245.3 K	96.78
246.61 K	97.03
247.77 K	97.28
249.58 K	97.53
250.25 K	97.61
252.54 K	98.11
252.72 K	98.11
255.2 K	98.19
255.52 K	98.28
257.67 K	98.78
258.49 K	98.86
260 K	99.11
260.15 K	99.19
261.46 K	99.44
262.63 K	99.61
264.43 K	99.86
265.1 K	100
267.4 K	100.4
267.57 K	100.4
270.05 K	100.8
270.36 K	100.9
272.53 K	101.2
273.33 K	101.3
275.01 K	101.6
276.31 K	101.8
277.49 K	102
279.28 K	102.3
279.96 K	102.3
280 K	102.3
282.25 K	102.7
282.44 K	102.6
284.92 K	103
285.23 K	103.1
287.4 K	103.4
288.2 K	103.5
289.88 K	103.8
291.17 K	104
292.35 K	104.1
294.15 K	104.4
294.83 K	104.5
297.13 K	105
297.32 K	105
298.15 K	105.1
299.8 K	105.2
300 K	105.2
300.11 K	105.2
302.28 K	105.4
303.09 K	105.6
304.77 K	105.6
304.91 K	105.8
306.07 K	106
307.26 K	106
307.89 K	106.2
309.06 K	106.4
309.74 K	106.4
310.86 K	106.6
312.04 K	106.7
312.23 K	106.7
313.84 K	106.8
314.72 K	106.9
315.03 K	107
316.82 K	107.2
317.21 K	107.2
318.02 K	107.3
319.7 K	107.4
319.8 K	107.6
320 K	107.6
321.01 K	107.7
322.19 K	107.8
322.77 K	108
324 K	108.1
324.68 K	108.2
325.75 K	108.3
326.99 K	108.4
327.18 K	108.3
329.67 K	108.6
331.72 K	108.9
334.69 K	109.2
337.67 K	109.5
340 K	109.7
340.65 K	109.8
343.63 K	110
346.62 K	110.3
349.6 K	110.6
352.59 K	110.8
355.58 K	111.1
358.57 K	111.4
360 K	111.5
361.56 K	111.6
364.55 K	111.9
367.55 K	112
370.55 K	112.2
373.55 K	112.5
376.55 K	112.7
379.55 K	113
380 K	113
382.56 K	113.2
385.56 K	113.4
388.57 K	113.6
391.59 K	113.8
394.6 K	113.9
397.62 K	114
400.65 K	114.2

From the NIST ThermoML archive (doi:10.1016/j.jct.2005.02.014)
